From patent US10004711B2, “Methods and compositions comprising 10-hydroxy-2-decenoic acid” (DSM IP ASSETS B.V., priority 2014, dated 2018)

How the values were obtained:
[1] = system: Neurons from the brain's hippocampus; assay: In vitro hypoxia cell death (ethidium homodimer); assay type: cell-based, rat; details: for Cell Death (% Control): hypoxia (<0.3% O2) 48 h
Method: (§1) Neurons from the brain's hippocampus were derived from E17 pups and incubated for 7 days. The neurons were then pre-treated with QBA for 48 hours and subsequently exposed to a hypoxia (<0.3% O2) for 48 hours. The cultures were stained with calcein AM, a marker of live cells, and with ethidium homodimer, a marker for dead cells. The fluorescence of each of these markers was then quantitated with a fluorimeter.

[2] = system: Neurons from the brain's hippocampus; assay: In vitro hypoxia cell health (calcein AM); assay type: cell-based, rat; details: for Cell Viability (% Control): hypoxia (<0.3% O2) 48 h
Method: as §1

older rats = assay: Elevated plus-maze, older rats fed QBA; assay type: in vivo, rat; details: for Time (s) in Open Arm: rats 18 months old, 5-min test
Method: The dose-response characteristics of 10-Hydroxy-2-decenoic acid's (QBA's) potential brain health benefits during aging were assessed for mood in older rats (18-20 months old).
(§2) Rats were fed QBA and subjected to an elevated plus-maze. The elevated plus-maze was elevated ˜85 cm above the floor and consisted of two open and two closed arms of the same size (50×10 cm). The closed arms were surrounded by walls 40 cm high, and the arms were constructed of black acrylic slabs that radiated from a central platform (10×10 cm) to form a plus sign. Each rat was placed in the central platform facing one of the open arms, and its behavior was recorded during a 5-min testing period with video capture software. More time spent in the open arms is an indication of reduced anxiety-like state. Rats were tested at 18 months old (N=11-13 per group).

[3] = system: 19-20 month-old male rats; assay: Elevated plus-maze, rats fed QBA alone or QBA+DHA; assay type: in vivo, rat; details: DHA 0.00
Method: as §2
The dose-response characteristics of 10-Hydroxy-2-decenoic acid's (QBA's) in combination with DHA for potential brain health benefits during aging were assessed for mood in 19-20 month-old male rats (N=11-14 per group). Rats were fed QBA alone or QBA+DHA and subjected to an elevated plus-maze.

[4] = system: Human peripheral blood mononuclear cells (PBMC); assay: Proliferation of PBMC after αCD3/CD28 stimulation; assay type: cell-based; details: for Cell Numbers: 72 h
Method: Human peripheral blood mononuclear cells (PBMC) were pre-treated with 10-Hydroxy-2-decenoic acid (QBA) for 1 hour prior to stimulation with αCD3/CD28. After 72 hours of incubation, cell number was assessed by Cell Titer Glow.

older male rats = assay: Learning acquisition, Barnes maze task; assay type: in vivo, rat; details: for Escape Latency: average of two trial runs
Method: The dose-response characteristics of 10-Hydroxy-2-decenoic acid's (QBA's) potential brain health benefits during aging were assessed for cognitive performance in older male rats (16-17 months old; N=10-12 per group). Rats were fed QBA for 4-5 months prior to behavioral assessment. Spatial learning and memory performance was tested using the Barnes circular maze which consists of a 4-ft diameter, gray circular platform raised 90 cm above the floor level with 20 holes, 10 cm in diameter, evenly spaced around the circumference. Animals were trained to locate a black escape tunnel beneath one of the holes in response to aversive light stimuli. The latency to enter the escape box in each of two trials across four trial days was recorded. Shorter latencies across and within trial days is an indication of better cognitive performance.

[5] = Body weight of aged male rats fed QBA and/or DHA (Example 8); assay type: in vivo, rat
Method: Aged male rats were fed 10-Hydroxy-2-decenoic acid (QBA) for approximately […] from 12-months to 20-months of age and the weight of rats was recorded.

stem cells = details: Hattori et al. 2009; cited from earlier work
[6] = QBA 10.00 μM pre-treatment 48 h
[7] = QBA 30.00 μM pre-treatment 48 h
[8] = QBA 100.00 μM pre-treatment 48 h

Structure (SMILES): O=C(O)C=CCCCCCCCO [QBA, 10-Hydroxy-2-decenoic acid]
- Cell Death (% Control) ([1]; QBA 0.10 μM pre-treatment 48 h): 86.26 % Control
- Cell Death (% Control) ([1]; QBA 0.30 μM pre-treatment 48 h): 83.62 % Control
- Cell Death (% Control) ([1]; QBA 1.00 μM pre-treatment 48 h): 83.00 % Control
- Cell Death (% Control) ([1]; QBA 3.00 μM pre-treatment 48 h): 82.20 % Control
- Cell Death (% Control) [1, 6]: 85.13 % Control
- Cell Death (% Control) [1, 7]: 82.29 % Control
- Cell Death (% Control) [1, 8]: 86.39 % Control
- cell death after low oxygen exposure ([1]; summary of Table 4): decreased cell death
- Cell Viability (% Control) ([2]; QBA 0.10 μM pre-treatment 48 h): 109.72 % Control
- Cell Viability (% Control) ([2]; QBA 0.30 μM pre-treatment 48 h): 112.76 % Control
- Cell Viability (% Control) ([2]; QBA 1.00 μM pre-treatment 48 h): 118.80 % Control
- Cell Viability (% Control) ([2]; QBA 3.00 μM pre-treatment 48 h): 121.04 % Control
- Cell Viability (% Control) [2, 6]: 117.65 % Control
- Cell Viability (% Control) [2, 7]: 115.05 % Control
- Cell Viability (% Control) [2, 8]: 111.82 % Control
- cell health after low oxygen exposure ([2]; summary of Table 5): increased cell health
- Time (s) in Open Arm (older rats; QBA 0.4 mg/kg/day): 48.5 s
- Time (s) in Open Arm (older rats; QBA 4 mg/kg/day): 52.2 s
- Time (s) in Open Arm (older rats; QBA 12 mg/kg/day): 37.1 s
- anxiety as measured by the time in the open arms of the elevated plus maze (older rats; QBA 24 mg/kg/d, 15-18-month old male rats): decreased anxiety
- Time (s) in Open Arm (older rats; QBA 24 mg/kg/day): 69.8 s
- Time (s) in Open Arm ([3]; QBA 12 mg/kg/day): 31.7 s
- Time (s) in Open Arm ([3]; QBA 24 mg/kg/day): 31.7 s
- Cell Numbers ([4]; QBA 50 μM 1 h before αCD3/CD28): 517020
- Cell Numbers ([4]; QBA 100 μM 1 h before αCD3/CD28): 472678
- Cell Numbers ([4]; QBA 500 μM 1 h before αCD3/CD28): 442008
- Cell Numbers ([4]; QBA 1000 μM 1 h before αCD3/CD28): 344026
- Cell Numbers ([4]; QBA 2500 μM 1 h before αCD3/CD28): 104291
- Cell Numbers ([4]; QBA 5000 μM 1 h before αCD3/CD28): 1601
- concentrations that reduced the proliferation of human immune cells ([4]; summary of Table 11): greater than 500 μM
- Escape Latency (older male rats; QBA 0.4 mg/kg/day, trial day 1): 98.8 s
- Escape Latency (older male rats; QBA 0.4 mg/kg/day, trial day 2): 63.4 s
- Escape Latency (older male rats; QBA 0.4 mg/kg/day, trial day 3): 63.4 s
- Escape Latency (older male rats; QBA 0.4 mg/kg/day, trial day 4): 24.7 s
- Escape Latency (older male rats; QBA 4 mg/kg/day, trial day 1): 106.7 s
- Escape Latency (older male rats; QBA 4 mg/kg/day, trial day 2): 43.4 s
- Escape Latency (older male rats; QBA 4 mg/kg/day, trial day 3): 43.4 s
- Escape Latency (older male rats; QBA 4 mg/kg/day, trial day 4): 23.6 s
- Escape Latency (older male rats; QBA 12 mg/kg/day, trial day 1): 79.3 s
- Escape Latency (older male rats; QBA 12 mg/kg/day, trial day 2): 30.7 s
- Escape Latency (older male rats; QBA 12 mg/kg/day, trial day 3): 30.7 s
- Escape Latency (older male rats; QBA 12 mg/kg/day, trial day 4): 24.3 s
- Escape Latency (older male rats; QBA 24 mg/kg/day, trial day 1): 109.8 s
- Escape Latency (older male rats; QBA 24 mg/kg/day, trial day 2): 48.4 s
- Escape Latency (older male rats; QBA 24 mg/kg/day, trial day 3): 48.4 s
- Escape Latency (older male rats; QBA 24 mg/kg/day, trial day 4): 34.3 s
- speed of learning acquisition (Barnes maze task) (older male rats; male rats aged 16-17 months): increased the speed of learning acquisition
- Avg Wt ([5]; QBA 12 mg/kg/day, study day 0): 547.0 g
- Avg Wt ([5]; QBA 12 mg/kg/day, study day 4): 560.9 g
- Avg Wt ([5]; QBA 12 mg/kg/day, study day 11): 571.5 g
- Avg Wt ([5]; QBA 12 mg/kg/day, study day 18): 580.1 g
- Avg Wt ([5]; QBA 12 mg/kg/day, study day 25): 584.5 g
- Avg Wt ([5]; QBA 12 mg/kg/day, study day 32): 590.8 g
- Avg Wt ([5]; QBA 12 mg/kg/day, study day 39): 591.7 g
- Avg Wt ([5]; QBA 12 mg/kg/day, study day 46): 594.3 g
- Avg Wt ([5]; QBA 12 mg/kg/day, study day 53): 595.4 g
- Avg Wt ([5]; QBA 12 mg/kg/day, study day 60): 598.7 g
- Avg Wt ([5]; QBA 12 mg/kg/day, study day 67): 597.8 g
- Avg Wt ([5]; QBA 12 mg/kg/day, study day 74): 603.7 g
- Avg Wt ([5]; QBA 12 mg/kg/day, study day 81): 607.3 g
- Avg Wt ([5]; QBA 12 mg/kg/day, study day 88): 608.5 g
- Avg Wt ([5]; QBA 12 mg/kg/day, study day 95): 612.8 g
- Avg Wt ([5]; QBA 12 mg/kg/day, study day 102): 614.5 g
- Avg Wt ([5]; QBA 12 mg/kg/day, study day 109): 617.0 g
- Avg Wt ([5]; QBA 12 mg/kg/day, study day 116): 617.2 g
- Avg Wt ([5]; QBA 12 mg/kg/day, study day 123): 617.3 g
- Avg Wt ([5]; QBA 12 mg/kg/day, study day 130): 616.9 g
- Avg Wt ([5]; QBA 12 mg/kg/day, study day 137): 621.5 g
- Avg Wt ([5]; QBA 12 mg/kg/day, study day 144): 619.1 g
- Avg Wt ([5]; QBA 12 mg/kg/day, study day 151): 620.5 g
- Avg Wt ([5]; QBA 24 mg/kg/day, study day 0): 551.5 g
- Avg Wt ([5]; QBA 24 mg/kg/day, study day 4): 566.8 g
- Avg Wt ([5]; QBA 24 mg/kg/day, study day 11): 573.4 g
- Avg Wt ([5]; QBA 24 mg/kg/day, study day 18): 585.7 g
- Avg Wt ([5]; QBA 24 mg/kg/day, study day 25): 593.1 g
- Avg Wt ([5]; QBA 24 mg/kg/day, study day 32): 596.0 g
- Avg Wt ([5]; QBA 24 mg/kg/day, study day 39): 599.7 g
- Avg Wt ([5]; QBA 24 mg/kg/day, study day 46): 601.5 g
- Avg Wt ([5]; QBA 24 mg/kg/day, study day 53): 601.8 g
- Avg Wt ([5]; QBA 24 mg/kg/day, study day 60): 606.5 g
- Avg Wt ([5]; QBA 24 mg/kg/day, study day 67): 607.5 g
- Avg Wt ([5]; QBA 24 mg/kg/day, study day 74): 611.8 g
- Avg Wt ([5]; QBA 24 mg/kg/day, study day 81): 614.5 g
- Avg Wt ([5]; QBA 24 mg/kg/day, study day 88): 617.8 g
- Avg Wt ([5]; QBA 24 mg/kg/day, study day 95): 620.2 g
- Avg Wt ([5]; QBA 24 mg/kg/day, study day 102): 623.9 g
- Avg Wt ([5]; QBA 24 mg/kg/day, study day 109): 627.4 g
- Avg Wt ([5]; QBA 24 mg/kg/day, study day 116): 630.3 g
- Avg Wt ([5]; QBA 24 mg/kg/day, study day 123): 629.2 g
- Avg Wt ([5]; QBA 24 mg/kg/day, study day 130): 630.3 g
- Avg Wt ([5]; QBA 24 mg/kg/day, study day 137): 633.5 g
- Avg Wt ([5]; QBA 24 mg/kg/day, study day 144): 642.1 g
- Avg Wt ([5]; QBA 24 mg/kg/day, study day 151): 638.6 g
- body weight versus control, repeated measures ANOVA ([5]; all doses versus 0 mg/kg/day QBA or 0 mg/kg/day QBA+0.07% DHA): small but significant increase
- body weight maintenance in aging male rats ([5]; summary of Table 14): helped to maintain healthy body weight
- neurogenesis and gliogenesis from stem cells (stem cells): stimulation of neurogenesis from stem cells while inhibiting gliogenesis
